≈ marks a conversion by molar mass, not a printed value. Entries after “also recorded” stand apart in the source; their conditions may differ. Read-outs that look alike come from different tables or passages of the source. Marks after values point to notes of the source that are not given here. Each block holds one compound with its values, some of them ahead of it.
Assays:
[1] = Chemical stability, qualitative stress tests (HPLC, LC-MS); type: physicochemical; details: solid, aqueous solution, PBS, 7 days each at 50, 70 and 90° C.
Protocol: The following HPLC methodology was established for the analysis of the exemplary compounds of the invention.
The method involves detection by UV at a wavelength of 420 nm, which is very specific for these compounds. In order to monitor impurities not related to the porphyrin structure (and therefore not absorbing at 420 nm) UV spectra of the whole chromatograms were also recorded between 200 nm and 700 nm by DAD (diode array detector) in certain experiments. • Column: Zorbax Phenyl, 250×4.6 mm, 5 µm • Eluent A: 1.5 g sodium dodecylsulfate+1 mL formic acid in 1000 mL water • Eluent B: 1.5 g sodium dodecylsulfate+1 mL formic acid in 200 mL water+800 mL tetrahydrofurane • Gradient:
• Flow rate: 0.4 mL/min • Detection: 420 nm • Column temperature: 25° C. • Injection volume: 10 μl • Solutions: Porphyrin derivatives were dissolved in eluent A to give a final concentration of approximately 0.3 mg/ml.
Qualitative stress tests were undertaken on the exemplary compounds of the invention. Analysis was undertaken by HPLC & LC-MS. The compounds were stress tested in solid form, in an aqueous solution and a solution made up in phosphate-buffered saline buffer. The samples were initially incubated for 7 days at 50° C. and a sample removed for testing. The samples were then incubated for a further 7 days at 70° C., samples removed as before and the samples incubated further for 7 days at 90° C. HPLC analysis of freshly prepared solutions was undertaken and compared to the samples after 7, 14 and 21 days incubation. A visual comparison of the chromatograms was then undertaken and the content of the main products and by-products as area percentage values determined (see FIG. 4).

E. coli cells = test: Binding of compounds with bacterial cells (spectrofluorimetric analysis of cell lysates); details: 5 min incubation
Protocol: […] At the end of the incubation period, the cells were sedimented by centrifugation to remove the fraction of unbound test compound and the cell pellet was resuspended in 2 ml of 2% SDS to obtain cell lysates. After overnight incubation with SDS, the amount of cell-bound test compound was estimated by spectrofluorimetric analysis of the cell lysates. The concentration of the compounds in the cell lysates was calculated by measuring the intensities at the maximum of the emission fluorescence spectrum and interpolating the data on a calibration plot. The amount of cell-bound test compound was expressed as nmoles of compound per mg of cell protein. The protein concentration was determined by the method of Lowry (Lowry et al., 1951, J. Biol. Chem. 193:265-275).
All experiments were run in triplicate and the results represent the average of 3 determinations with standard deviations.

S. aureus SH1000 = test: Planktonic MIC by broth microdilution (BSAC guidelines); type: cell-based, Staphylococcus aureus
Protocol: (§1) Methods: MICs were determined for planktonic cultures by broth microdilution according to British Society for Antimicrobial Chemotherapy (BSAC) guidelines. Biofilm MICs (bMIC) and minimum biofilm eradication concentrations (MBECs) were determined using the Calgary biofilm device. The effect of Compound 10 on the viability of cold culture cells was determined by growing S. aureus SH1000 to early exponential phase at 37° C. and resuspending the cells in pre-chilled media, where they were maintained in the presence and absence of Compound 10 and control agents. The effect of Compound 10 on slow growing cells expressing the stringent response was also determined by growing cultures to early log phase and the stringent response induced by the addition of the isoleucyl-tRNA synthetase inhibitor mupirocin. Compound 10 and control agents were then added and samples recovered for viable cell determinations.

[2] = test system: S. aureus SH1000 cold cultures; test: Time-kill against cold cultures (4° C.); type: cell-based, Staphylococcus aureus; details: cold culture held at 4° C. for 5 hours, agents at 4×MIC
Protocol: as §1
The effect of XF drugs on the viability of cold culture cells was determined by growing S. aureus SH1000 to early exponential phase at 37° C., harvesting the cells by centrifugation (5,000×g, 10 min.) and resuspending them in pre-chilled media where they were maintained in the presence and absence of XF drugs and control agents for 5 hours. […] (FIG. 11).
(§2) The anti-staphylococcal activities of Compound 10, Compound 12 and a range of comparator agents against slow-growing cultures of Staphylococcus aureus were studied using standard time-kill methodology (Oliva et al. 2003, Hobbs et al. 2008). Staphylococcus aureus SH1000 cultures were grown to early exponential phase (OD600 nm of 0.2) in Mueller-Hinton broth (MHB) before being exposed to antibacterial agents at 4×MIC. An untreated culture served as the negative control. The experiments were undertaken in triplicate.
Cold cultures were prepared by growing SH1000 cells to early exponential phase (OD600 nm of 0.2) at 37° C. Cultures were then centrifuged and the cell pellet was resuspended in MHB pre-chilled to 4° C. The killing kinetics of antimicrobial agents were studied as described in the section above, with the exception that cultures were maintained at 4° C. over the 5 hour sampling period.

[3] = test system: S. aureus SH1000 biofilms; test: Biofilm MIC and minimum biofilm eradication concentration, Calgary Biofilm Device; type: cell-based, Staphylococcus aureus; details: Staphylococcus aureus, SH1000BIOFILMS, read-out: bMIC
Protocol: as §1
Biofilm MICs and minimum biofilm eradication concentrations (MBEC) were determined in the Calgary Biofilm Device (Nunc Inc, Roskilde, Denmark) as described by Miller et al., 2005. This involves the following steps. Aliquots (200 μL) of exponential phase cultures of strain SH1000 were added to each well of a 96-well microtitre tray. The lid assembly, which has 96 polystyrene pegs corresponding to each well, was then replaced and the system incubated for 24 hours at 37° C. on a rocking platform. Following this a biofilm of approximately 10^7 cfu matured on each peg. The lid was then washed twice in phosphate-buffered saline (PBS) to remove residual planktonic growth and then placed into a microtitre tray with fresh media containing doubling dilutions of the test antibiotic. The system was then incubated for 24 hours at 37° C. on a rocking platform. The MIC was defined as the lowest concentration of antibiotic completely inhibiting visible growth after this incubation. After the MIC was recorded, the lid assembly was again washed twice in PBS to remove planktonic cells and remaining antibiotic and then placed into fresh drug-free media. The system was incubated for a further 24 hours and the MBEC was defined as the lowest concentration of antibiotic completely inhibiting the re-establishment of planktonic growth.

[4] = test system: stringent S. aureus SH1000 cultures; test: Time-kill against cultures expressing the stringent response (induced with mupirocin); type: cell-based, Staphylococcus aureus; details: stringent response induced with mupirocin, agents at 4×MIC
Protocol: as §1
When nutrients become limiting for growth bacteria adjust their metabolism from one that supports growth to one that provides for long survival in the absence of nutrients. In many bacteria a key facilitator of this physiological switch, known as the stringent response, is accumulation of guanosine […] and pentaphosphate (Traxler et al., 2008). The antibiotic mupirocin is a strong inducer of the stringent response in S. aureus and effectively causes starvation of charged isoleucyl tRNA by potent inhibition of isoleucy ItRNA synthetase (IRS) (Oliva et al., 2003). The activity of XF drugs against S. aureus SH1000 prevented from growing by the addition of mupirocin (Oliva et al., 2003), was therefore examined (FIG. 10). As an alternative method for arresting growth, bacteria were suspended in cold growth medium (Mascio et al., 2007) and the bactericidal activity of XF drugs was also determined under these conditions (FIG. 11).
as §2
The antibiotic mupirocin is a strong inducer of the stringent response in S. aureus and causes starvation of charged isoleucyl tRNA by potent inhibition of isoleucyl tRNA synthetase (IRS) (Oliva et al. 2003, Cassels et al. 1995) Stringency was induced in SH1000 cultures by adding mupirocin (4 mg/L) to cells in the early exponential growth phase (OD600 nm of 0.2) (Oliva et al. 2003, Cassels et al. 1995). Cultures were incubated with mupirocin for 30 minutes before sampling began. Cultures were maintained at 37° C., and samples were taken at 30 minute intervals for 300 minutes, serially diluted in phosphate buffered saline (PBS) and diluted culture was spread on Mueller-Hinton agar and was incubated at 37° C. for 18-24 hours before the number of CFU were counted.

S. aureus 8325-4 = details: previous studies (Oliva et al., 2003); cited from earlier work
staphylococci = details: cited from earlier work; for MIC Values: literature value (Critchley et al. 2003)
[5] = planktonic S. aureus SH1000 (Table 6)

Structure (SMILES): CN(C)CCC[N+](C)(C)CCCOc1ccc(-c2c3nc(cc4ccc([nH]4)c(-c4ccc(OCCC[N+](C)(C)CCCN(C)C)cc4)c4nc(cc5ccc2[nH]5)C=C4)C=C3)cc1.[Cl-].[Cl-] [Compound 8, 5,15-bis-(4-{3-[(3-Dimethylamino-propyl)-dimethyl-ammonio]-propyloxy}-phenyl)-porphyrin dichloride]
Chemical stability under stress [1]: less stable than Compounds 10 and 12
Bound compound (E. coli cells; 0.01 μM compound, 0 washings): 0.024 ± 0.01 nmoles/mg cell proteins
Bound compound (E. coli cells; 0.01 μM compound, 3 washings): 0.009 ± 0.001 nmoles/mg cell proteins
Bound compound (E. coli cells; 0.1 μM compound, 0 washings): 0.056 ± 0.02 nmoles/mg cell proteins
Bound compound (E. coli cells; 0.1 μM compound, 3 washings): 0.030 ± 0.02 nmoles/mg cell proteins
Bound compound (E. coli cells; 0.5 μM compound, 0 washings): 0.522 ± 0.2 nmoles/mg cell proteins
Bound compound (E. coli cells; 0.5 μM compound, 3 washings): 0.274 ± 0.15 nmoles/mg cell proteins
Bound compound (E. coli cells; 1 μM compound, 0 washings): 3.670 ± 0.7 nmoles/mg cell proteins
Bound compound (E. coli cells; 1 μM compound, 3 washings): 2.230 ± 0.8 nmoles/mg cell proteins

MIC (S. aureus SH1000; Staphylococcus aureus, planktonic S. aureus SH1000 (Table 5), read-out: MIC): 16 µg/mL (≈ 116 µM)
MIC (S. aureus SH1000; [5]): 16 µg/mL (≈ 116 µM)
Structure (SMILES): C[C@@H]1O[C@@H]1P(=O)(O)O [Fosfomycin]
viability / bactericidal activity in time-kill (in words) [2]: no loss of viability
MIC ([3]; 24 h, biofilm MIC, S. aureus SH1000, Calgary Biofilm Device, 24 hours (Table 6)): 8 µg/mL (≈ 57.9 µM)
MIC ([3]; biofilm MIC, S. aureus SH1000, Calgary device (Example H)): 8 µg/mL (≈ 57.9 µM)
viability / bactericidal activity in time-kill (in words) [4]: no loss of viability; also recorded: completely attenuated
effect of the stringent response on bactericidal activity (S. aureus 8325-4): completely abolishes the bactericidal activity

Structure (SMILES): CN[C@H](CC(C)C)C(=O)N[C@H]1C(=O)N[C@@H](CC(N)=O)C(=O)N[C@H]2C(=O)N[C@H]3C(=O)N[C@H](C(=O)N[C@H](C(=O)O)c4cc(O)cc(O)c4-c4cc3ccc4O)[C@H](O)c3ccc(c(Cl)c3)Oc3cc2cc(c3O[C@@H]2O[C@H](CO)[C@@H](O)[C@H](O)[C@H]2O[C@H]2C[C@](C)(N)[C@H](O)[C@H](C)O2)Oc2ccc(cc2Cl)[C@H]1O [Vancomycin]
MIC (S. aureus SH1000; Staphylococcus aureus, SH1000): 1 µg/mL (≈ 0.69 µM)
MIC (S. aureus SH1000; [5]): 1 µg/mL (≈ 0.69 µM)
viability / bactericidal activity in time-kill (in words) [2]: no loss of viability; also recorded: abolished
MIC ([3]; 24 h): 2 µg/mL (≈ 1.38 µM)
MIC [3]: 2 µg/mL (≈ 1.38 µM)
viability / bactericidal activity in time-kill (in words) [4]: no loss of viability
MBC Values (staphylococci; literature value (Biavasco et al. 1997; Fuchs et al. 2002)): 4-16^b μg/mL
MIC Values (staphylococci): 1^a μg/mL
effect of the stringent response on bactericidal activity (S. aureus 8325-4): completely abolishes the bactericidal activity

Structure (SMILES): CC(=O)NC[C@H]1CN(c2ccc(N3CCOCC3)c(F)c2)C(=O)O1 [Zyvox ® (Linezolid), Linezolid]
MIC Values (staphylococci): 4^a μg/mL

Structure (SMILES): N[C@@H]1CON=C1O [cycloserine]
effect of the stringent response on bactericidal activity (S. aureus 8325-4): completely abolishes the bactericidal activity

Reference: US9326511B2, “Methods of inhibiting microbial biofilms” (priority 2008, dated 2016)
